Reference: ChEMBL document CHEMBL1126872, “5-HT3 receptor antagonists. 3. Quinoline derivatives which may be effective in the therapy of irritable bowel syndrome” (J Med Chem, 1993)

What was measured:
[1] = target: Serotonin 3 (5-HT3) receptor; experiment: Binding affinity towards [3H]quipazine labeled 5-hydroxytryptamine 3 receptor sites in HG108-15; type: protein-complex assay, Cavia porcellus
Rattus norvegicus [2] = experiment: Inhibitory dose causing inhibition of restraint stress induced defecation by oral administration; type: functional; settings: read-out: ID50 (the source's name)
Rattus norvegicus [3] = experiment: Effective dose causing reduction of serotonin effect at 5 min administered iv in Bezold-Jarisch reflex test; type: functional
Rattus norvegicus [4] = experiment: Inhibitory dose causing inhibition of increase in castor oil induced diarrhea by oral administration at 1 ml/rat; type: functional; settings: read-out: ID50 (the source's name)
Rattus norvegicus [5] = organism: Rattus norvegicus; experiment: animal or person; type: functional; settings: sc, dose mg/kg 1-10, route subcutaneous, read-out: ID50 (the source's name)
Description: Inhibitory dose causing inhibition of increase in 5-HT induced defecation by sc administration 1 to 10 mg/kg

Rattus norvegicus [6] = organism: Rattus norvegicus; experiment: Inhibition of wrap-restraint stress-induced colonic propulsion measured by the time required to expel a teflon ball inserted 3 cm into the rat colon; type: functional; settings: read-out: ID50 (the source's name)
Rattus norvegicus [7] = organism: Rattus norvegicus; experiment: animal or person; type: functional; settings: sc, route subcutaneous, read-out: ID50 (the source's name)
Description: Inhibitory dose causing inhibition of increase in thyrotropin-releasing hormone (TRH) induced defecation by sc administration at 1 mg/kg

Rattus norvegicus [8] = experiment: Inhibition of restraint stress induced defecation by oral administration (inhibition at 1 mg/kg)
Rattus norvegicus [9] = experiment: Inhibition of restraint stress induced defecation by oral administration (inhibition percent at 1 mg/kg)
Rattus norvegicus [10] = experiment: Inhibitory dose causing inhibition of restraint stress induced defecation by oral administration ((inhibition percent at 1 mg/kg); type: functional; settings: read-out: ID50 (the source's name)
Rattus norvegicus [11] = experiment: Inhibitory dose causing inhibition of increase in 5-HT induced defecation by sc administration at 1 to 10 mg/kg; type: functional; settings: dose mg/kg 1-10, route subcutaneous, read-out: ID50 (the source's name)

CCCCCCn1c(=O)cc(C(=O)OC2CC3CCC(C2)N3C)c2ccccc21 (configuration not stated)
Ki [1]: 1.1 nM | ED50 (Rattus norvegicus [2]): 66 µg/kg | ED50 (Rattus norvegicus [3]): 86 µg/kg

CN1C2CCC1CC(NC(=O)c1cnc3ccccc3c1O)C2 (configuration not stated)
Ki [1]: 1.5 nM | ED50 (Rattus norvegicus [4]): 790 µg/kg | ED50 (Rattus norvegicus [5]): 690 µg/kg | ED50 (Rattus norvegicus [2]): 1400 µg/kg | ED50 (Rattus norvegicus [3]): 0.1 µg/kg | ED50 (Rattus norvegicus [6]): 1800 µg/kg | ED50 (Rattus norvegicus [7]): 53 µg/kg

COc1cc(C(=O)OC2CC3CCC(C2)N3C)c2ccccc2n1 (configuration not stated)
Ki [1]: 0.58 nM | ED50 (Rattus norvegicus [2]): 45000 µg/kg | ED50 (Rattus norvegicus [3]): 420 µg/kg

CN1C2CCC1CC(NC(=O)c1c(O)c3ccccc3n(-c3ccccc3)c1=O)C2 (configuration not stated)
Ki [1]: 1.4 nM | Inhibition % at 1 mg/kg (Rattus norvegicus [8]): 48% | ED50 (Rattus norvegicus [3]): 73 µg/kg

Cn1cc(C(=O)C2CCc3nc[nH]c3C2)c2ccccc21 (configuration not stated)
Ki [1]: 0.071 nM | ED50 (Rattus norvegicus [4]): 1100 µg/kg | ED50 (Rattus norvegicus [5]): 13 µg/kg | ED50 (Rattus norvegicus [2]): 5.2 µg/kg | ED50 (Rattus norvegicus [3]): 0.089 µg/kg | ED50 (Rattus norvegicus [6]): 69 µg/kg | ED50 (Rattus norvegicus [7]): 5.1 µg/kg

Cc1nc2ccccc2c(O)c1C(=O)NC1CC2CCC(C1)N2C (configuration not stated)
Ki [1]: 7.2 nM | Inhibition % at 1 mg/kg (Rattus norvegicus [8]): 41% | ED50 (Rattus norvegicus [3]): 15 µg/kg

CCCCOc1cc(C(=O)OC2CC3CCC(C2)N3C)c2ccccc2n1 (configuration not stated)
Ki [1]: 0.39 nM | Inhibition % at 1 mg/kg (Rattus norvegicus [9]): 64% | ED50 (Rattus norvegicus [3]): 200 µg/kg

CCn1c(=O)cc(C(=O)OC2CC3CCC(C2)N3C)c2ccccc21 (configuration not stated)
Ki [1]: 1.1 nM | ED50 (Rattus norvegicus [2]): 52 µg/kg | ED50 (Rattus norvegicus [3]): 22 µg/kg

CC(C)CCn1c(=O)cc(C(=O)OC2CC3CCC(C2)N3C)c2ccccc21 (configuration not stated)
Ki [1]: 1.5 nM | ED50 (Rattus norvegicus [2]): 41 µg/kg | ED50 (Rattus norvegicus [3]): 59 µg/kg

CN1C2CCC1CC(OC(=O)c1cc(=O)n(Cc3ccccc3)c3ccccc13)C2 (configuration not stated)
Ki [1]: 1.3 nM | Inhibition % at 1 mg/kg (Rattus norvegicus [9]): 22% | ED50 (Rattus norvegicus [3]): 150 µg/kg

CC(C)COc1cc(C(=O)OC2CC3CCC(C2)N3C)c2ccccc2n1 (configuration not stated)
Ki [1]: 0.44 nM | ED50 (Rattus norvegicus [10]): 36000 µg/kg | ED50 (Rattus norvegicus [3]): 240 µg/kg

CN1C2CCC1CC(OC(=O)c1cc(=O)n(C)c3ccccc13)C2 (configuration not stated)
Ki [1]: 2.6 nM | Inhibition % at 1 mg/kg (Rattus norvegicus [9]): 47% | ED50 (Rattus norvegicus [3]): 180 µg/kg

CN1C2CCC1CC(NC(=O)c1cc(=O)n(-c3ccccc3)c3ccccc13)C2 (configuration not stated)
Ki [1]: 63 nM | Inhibition % at 1 mg/kg (Rattus norvegicus [9]): 14% | ED50 (Rattus norvegicus [3]): 190 µg/kg

CCCCn1c(=O)c(C(=O)NC2CC3CCC(C2)N3C)c(O)c2cccnc21 (configuration not stated)
Ki [1]: 6.4 nM | Inhibition % at 1 mg/kg (Rattus norvegicus [8]): 35% | ED50 (Rattus norvegicus [3]): 290 µg/kg

CCCCn1c(=O)cc(C(=O)OC2CC3CCC(C2)N3C)c2ccccc21 (configuration not stated)
Ki [1]: 0.68 nM | ED50 (Rattus norvegicus [2]): 140 µg/kg | ED50 (Rattus norvegicus [3]): 41 µg/kg

CCCCCOc1cc(C(=O)OC2CC3CCC(C2)N3C)c2ccccc2n1 (configuration not stated)
Ki [1]: 0.86 nM | ED50 (Rattus norvegicus [2]): 30000 µg/kg | ED50 (Rattus norvegicus [3]): 1130 µg/kg

CC(C)Oc1cc(C(=O)NC2CC3CCC(C2)N3C)c2ccccc2n1 (configuration not stated)
Ki [1]: 53 nM | ED50 (Rattus norvegicus [2]): 39000 µg/kg | ED50 (Rattus norvegicus [3]): 1860 µg/kg

CCOc1cc(C(=O)OC2CC3CCC(C2)N3C)c2ccccc2n1 (configuration not stated)
Ki [1]: 0.88 nM | Inhibition % at 1 mg/kg (Rattus norvegicus [9]): 36% | ED50 (Rattus norvegicus [3]): 70 µg/kg

CCCn1c(=O)cc(C(=O)NC2CC3CCC(C2)N3C)c2ccccc21 (configuration not stated)
Ki [1]: 67 nM | Inhibition % at 1 mg/kg (Rattus norvegicus [9]): 12% | ED50 (Rattus norvegicus [3]): 350 µg/kg

CCCOc1cc(C(=O)NC2CC3CCC(C2)N3C)c2ccccc2n1 (configuration not stated)
Ki [1]: 42 nM | Inhibition % at 1 mg/kg (Rattus norvegicus [9]): 29% | ED50 (Rattus norvegicus [3]): 1540 µg/kg

CCCCn1c(=O)cc(C(=O)NC2CC3CCC(C2)N3C)c2ccccc21 (configuration not stated)
Ki [1]: 60 nM | Inhibition % at 1 mg/kg (Rattus norvegicus [9]): 47% | ED50 (Rattus norvegicus [3]): 370 µg/kg

CC(C)n1c(=O)cc(C(=O)OC2CC3CCC(C2)N3C)c2ccccc21 (configuration not stated)
Ki [1]: 0.32 nM | ED50 (Rattus norvegicus [2]): 40 µg/kg | ED50 (Rattus norvegicus [3]): 81 µg/kg

CCCCCCOc1cc(C(=O)OC2CC3CCC(C2)N3C)c2ccccc2n1 (configuration not stated)
Ki [1]: 3.2 nM | Inhibition % at 1 mg/kg (Rattus norvegicus [9]): 23% | ED50 (Rattus norvegicus [3]): 7680 µg/kg

CN1C2CCC1CC(OC(=O)c1cnc3ccccc3c1O)C2 (configuration not stated)
Ki [1]: 6.1 nM | Inhibition % at 1 mg/kg (Rattus norvegicus [8]): 13% | ED50 (Rattus norvegicus [3]): 1.7 µg/kg

Cc1nccn1CC1CCc2c(c3ccccc3n2C)C1=O (configuration not stated) [ONDANSETRON]
ED50 (Rattus norvegicus [4]): 1400 µg/kg | ED50 (Rattus norvegicus [2]): 27 µg/kg | ED50 (Rattus norvegicus [6]): 1600 µg/kg | ED50 (Rattus norvegicus [7]): 310 µg/kg | ED50 (Rattus norvegicus [11]): 530 µg/kg

CC(C)Cc1cc(C(=O)OC2CC3CCC(C2)N3C)c2ccccc2n1 (configuration not stated)
Ki [1]: 0.69 nM | Inhibition % at 1 mg/kg (Rattus norvegicus [8]): 28% | ED50 (Rattus norvegicus [3]): 5.6 µg/kg

CN1C2CCC1CC(OC(=O)c1cc(=O)n(-c3ccccc3)c3ccccc13)C2 (configuration not stated)
Ki [1]: 0.51 nM | Inhibition % at 1 mg/kg (Rattus norvegicus [9]): 59% | ED50 (Rattus norvegicus [3]): 44 µg/kg

CCCCCn1c(=O)cc(C(=O)OC2CC3CCC(C2)N3C)c2ccccc21 (configuration not stated)
Ki [1]: 0.96 nM | ED50 (Rattus norvegicus [2]): 73 µg/kg | ED50 (Rattus norvegicus [3]): 59 µg/kg

CCCn1c(=O)cc(C(=O)OC2CC3CCC(C2)N3C)c2ccccc21 (configuration not stated)
Ki [1]: 0.45 nM | ED50 (Rattus norvegicus [2]): 170 µg/kg | ED50 (Rattus norvegicus [3]): 330 µg/kg

CC(C)Cn1c(=O)cc(C(=O)OC2CC3CCC(C2)N3C)c2ccccc21 (configuration not stated)
Ki [1]: 0.47 nM | ED50 (Rattus norvegicus [4]): 1400 µg/kg | ED50 (Rattus norvegicus [5]): 18 µg/kg | ED50 (Rattus norvegicus [2]): 13 µg/kg | ED50 (Rattus norvegicus [3]): 33 µg/kg | ED50 (Rattus norvegicus [6]): 10 µg/kg | ED50 (Rattus norvegicus [7]): 21 µg/kg

CCCCn1c(=O)c(C(=O)NC2CC3CCC(C2)N3C)c(O)c2ccccc21 (configuration not stated)
Ki [1]: 0.48 nM | Inhibition % at 1 mg/kg (Rattus norvegicus [8]): 61% | ED50 (Rattus norvegicus [3]): 290 µg/kg

CN1C2CCC1CC(OC(=O)c1cc(-c3ccccc3)nc3ccccc13)C2 (configuration not stated)
Ki [1]: 71 nM | ED50 (Rattus norvegicus [3]): 340 µg/kg

CCCCOc1cc(C(=O)NC2CC3CCC(C2)N3C)c2ccccc2n1 (configuration not stated)
Ki [1]: 19 nM | Inhibition % at 1 mg/kg (Rattus norvegicus [9]): 43% | ED50 (Rattus norvegicus [3]): 540 µg/kg
